Results as given in paper PMC6988596 (Chemical Science, 2019).

Molecular target: LeuS (Escherichia coli, UniProt P07813)
Experiment: HAMA hydroxamate LC-MS/MS competition assay
Assay type: biochemical
Conditions: amino acid mixture

CC(C)C[C@H](N)C(=O)O [L-Leu]
HAMA hydroxamate LC-MS/MS competition assay: all three specificities were correctly identified and almost no side-activities detected
